Columns and labels:
Type in all cases: in vivo
[1] = tested on: winter barley (Hordeum vulgare); assay: Test B postemergence plant response; conditions: Postemergence
Summary of the method: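 Visual ratings from 0 (no effect) to 100 (complete control), made against controls 13–15 days after treatment, kept in a greenhouse. Compounds were applied postemergence to potted plants at the 1- to 4-leaf stage (2–18 cm).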

[2] = tested on: giant foxtail (Setaria faberii); assay: Test A pre-/postemergence plant response
Summary of the method: (§1)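 Visually rated 0–100 injury (100 = complete control) versus untreated plants, ~10 days in greenhouse. Application pre- (soil spray, loam/sand) and postemergence (2–10 cm, 1–2 leaf stage), same timepoint.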

[3] = tested on: barnyardgrass (Echinochloa crus-galli); assay: Test A pre-/postemergence plant response
Summary of the method: as §1

corn (Zea mays) = assay: Test A pre-/postemergence plant response
Summary of the method: as §1

[4] = tested on: morningglory (Ipomoea spp.); assay: Test A pre-/postemergence plant response
Summary of the method: as §1

[5] = tested on: large crabgrass (Digitaria sanguinalis); assay: Test A pre-/postemergence plant response
Summary of the method: as §1

[6] = tested on: wheat (Triticum aestivum); assay: Test A pre-/postemergence plant response
Summary of the method: as §1

[7] = tested on: velvetleaf (Abutilon theophrasti); assay: Test A pre-/postemergence plant response
Summary of the method: as §1

[8] = tested on: pigweed (Amaranthus retroflexus); assay: Test A pre-/postemergence plant response
Summary of the method: as §1

[9] = tested on: barnyardgrass (Echinochloa crus-galli); assay: Test B flooded paddy test; conditions: for Plant response rating, Flood, Barnyardgrass: 250 g ai/ha, flooded paddy test, visual rating on 0 to 100 scale (0 no effect, 100 complete control) after 13 to 15 days; for Plant response rating, Barnyardgrass: Flood (flooded paddy test), 13 to 15 days
Summary of the method: (§2)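 Post-flood paddy application: compounds are introduced into water 3 cm deep over the soil, reaching plants at the 2-leaf stage. The water level is maintained, and after 13–15 days under greenhouse conditions, response is judged by eye relative to controls, where 100 means complete control.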

rice (Oryza sativa) = assay: Test B flooded paddy test; conditions: for Plant response rating, Flood, Rice: 250 g ai/ha, flooded paddy test, visual rating on 0 to 100 scale (0 no effect, 100 complete control) after 13 to 15 days; for Plant response rating, Rice: Flood (flooded paddy test), 13 to 15 days
Summary of the method: as §2

[10] = tested on: ducksalad (Heteranthera limosa); assay: Test B flooded paddy test; conditions: for Plant response rating, Flood, Ducksalad: 250 g ai/ha, flooded paddy test, visual rating on 0 to 100 scale (0 no effect, 100 complete control) after 13 to 15 days; for Plant response rating, Ducksalad: Flood (flooded paddy test), 13 to 15 days
Summary of the method: as §2

[11] = tested on: umbrella sedge (Cyperus difformis); assay: Test B flooded paddy test; conditions: for Plant response rating, Flood, Sedge, Umbrella: 250 g ai/ha, flooded paddy test, visual rating on 0 to 100 scale (0 no effect, 100 complete control) after 13 to 15 days; for Plant response rating, Sedge, Umbrella: Flood (flooded paddy test), 13 to 15 days
Summary of the method: as §2

[12] = 31 g ai/ha, scale 0 to 100 (0 no effect, 100 complete control)
[13] = 62 g ai/ha, scale 0 (no effect) to 100 (complete control), 13 to 15 days
[14] = 125 g ai/ha, visual rating after 13 to 15 days, scale 0 (no effect) to 100 (complete control)
[15] = Postemergence, 125 g ai/ha, visual injury, 0 to 100 scale (0 no effect, 100 complete control), approx. ten days
[16] = Postemergence, 500 g ai/ha, 0 to 100 scale, 0 = no effect, 100 = complete control, approx. ten days
[17] = Preemergence, 125 g ai/ha, 0 to 100 scale, 0 = no effect, 100 = complete control
[18] = Preemergence, 500 g ai/ha, visual injury, 0 to 100 scale (0 no effect, 100 complete control), approx. ten days
[19] = 31 g ai/ha, scale of 0 to 100 where 0 is no effect and 100 is complete control
[20] = 62 g ai/ha, scale 0 to 100, 0 is no effect, 100 is complete control
[21] = 125 g ai/ha, scale 0 to 100, 0 is no effect, 100 is complete control

## Cc1cc(C)cc(-n2c(-c3ccccc3)ncc(C(=O)C3=C(O)CCCC3=O)c2=O)c1 [Compound 33]
[1]; [12]
  Plant response rating, Barley: 0
[1]; [13]
  Plant response rating, Barley: 0
[1]; [14]
  Plant response rating, Barley: 0
[1]; 250 g ai/ha, scale 0 to 100
  Barley plant response rating: 0
[2]; [15]
  Foxtail, Giant plant response rating: 60
[2]; [16]
  Plant response rating, Foxtail, Giant: 100
[2]; [17]
  Plant response rating, Foxtail, Giant: 30
[2]; [18]
  Plant response rating, Foxtail, Giant: 90
[3]; [15]
  Barnyardgrass plant response rating: 80
[3]; [16]
  Plant response rating, Barnyardgrass: 100
[3]; [17]
  Plant response rating, Barnyardgrass: 10
[3]; [18]
  Plant response rating, Barnyardgrass: 90
Corn (Zea mays); [15]
  Corn plant response rating: 0
Corn (Zea mays); [16]
  Plant response rating, Corn: 20
Corn (Zea mays); [17]
  Plant response rating, Corn: 0
Corn (Zea mays); [18]
  Plant response rating, Corn: 30
[4]; [15]
  Morningglory plant response rating: 80
[4]; [16]
  Plant response rating, Morningglory: 90
[4]; [17]
  Plant response rating, Morningglory: 0
[4]; [18]
  Plant response rating, Morningglory: 50
[5]; [15]
  Crabgrass, Large plant response rating: 70
[5]; [16]
  Plant response rating, Crabgrass, Large: 100
[5]; [17]
  Plant response rating, Crabgrass, Large: 80
[5]; [18]
  Plant response rating, Crabgrass, Large: 100
[6]; [15]
  Wheat plant response rating: 0
[6]; [16]
  Plant response rating, Wheat: 20
[6]; [17]
  Plant response rating, Wheat: 0
[6]; [18]
  Plant response rating, Wheat: 10
[7]; [15]
  Velvetleaf plant response rating: 100
[7]; [16]
  Plant response rating, Velvetleaf: 100
[7]; [17]
  Plant response rating, Velvetleaf: 50
[7]; [18]
  Plant response rating, Velvetleaf: 80
[8]; [15]
  Pigweed plant response rating: 90
[8]; [16]
  Plant response rating, Pigweed: 100
[8]; [17]
  Plant response rating, Pigweed: 80
[8]; [18]
  Plant response rating, Pigweed: 90
[9]
  Plant response rating, Flood, Barnyardgrass: 40
[9]; [19]
  Plant response rating, Barnyardgrass: 0
[9]; [20]
  Plant response rating, Barnyardgrass: 20
[9]; [21]
  Plant response rating, Barnyardgrass: 30
Rice (Oryza sativa)
  Plant response rating, Flood, Rice: 50
Rice (Oryza sativa); [19]
  Plant response rating, Rice: 0
Rice (Oryza sativa); [20]
  Plant response rating, Rice: 0
Rice (Oryza sativa); [21]
  Plant response rating, Rice: 20
[10]
  Plant response rating, Flood, Ducksalad: 95
[10]; [19]
  Plant response rating, Ducksalad: 60
[10]; [20]
  Plant response rating, Ducksalad: 75
[10]; [21]
  Plant response rating, Ducksalad: 80
[11]
  Plant response rating, Flood, Sedge, Umbrella: 85
[11]; [19]
  Plant response rating, Sedge, Umbrella: 20
[11]; [20]
  Plant response rating, Sedge, Umbrella: 30
[11]; [21]
  Plant response rating, Sedge, Umbrella: 50

## Cc1ccccc1-n1c(-c2cccc(Cl)c2)ncc(C(=O)C2=C(O)CCCC2=O)c1=O [Compound 36]
[1]; [12]
  Plant response rating, Barley: 5
[1]; [13]
  Plant response rating, Barley: 10
[1]; [14]
  Plant response rating, Barley: 20
[2]; [15]
  Foxtail, Giant plant response rating: 80
[2]; [16]
  Plant response rating, Foxtail, Giant: 100
[2]; [17]
  Plant response rating, Foxtail, Giant: 10
[2]; [18]
  Plant response rating, Foxtail, Giant: 60
[3]; [15]
  Barnyardgrass plant response rating: 90
[3]; [16]
  Plant response rating, Barnyardgrass: 100
[3]; [17]
  Plant response rating, Barnyardgrass: 10
[3]; [18]
  Plant response rating, Barnyardgrass: 50
Corn (Zea mays); [15]
  Corn plant response rating: 0
Corn (Zea mays); [16]
  Plant response rating, Corn: 60
Corn (Zea mays); [17]
  Plant response rating, Corn: 0
Corn (Zea mays); [18]
  Plant response rating, Corn: 0
[4]; [15]
  Morningglory plant response rating: 50
[4]; [16]
  Plant response rating, Morningglory: 100
[4]; [17]
  Plant response rating, Morningglory: 0
[4]; [18]
  Plant response rating, Morningglory: 30
[5]; [15]
  Crabgrass, Large plant response rating: 80
[5]; [16]
  Plant response rating, Crabgrass, Large: 100
[5]; [17]
  Plant response rating, Crabgrass, Large: 10
[5]; [18]
  Plant response rating, Crabgrass, Large: 80
[6]; [15]
  Wheat plant response rating: 0
[6]; [16]
  Plant response rating, Wheat: 0
[6]; [17]
  Plant response rating, Wheat: 0
[6]; [18]
  Plant response rating, Wheat: 20
[7]; [15]
  Velvetleaf plant response rating: 100
[7]; [16]
  Plant response rating, Velvetleaf: 100
[7]; [17]
  Plant response rating, Velvetleaf: 60
[7]; [18]
  Plant response rating, Velvetleaf: 100
[8]; [15]
  Pigweed plant response rating: 90
[8]; [16]
  Plant response rating, Pigweed: 100
[8]; [17]
  Plant response rating, Pigweed: 0
[8]; [18]
  Plant response rating, Pigweed: 80
[9]
  Plant response rating, Flood, Barnyardgrass: 15
[9]; [19]
  Plant response rating, Barnyardgrass: 0
[9]; [20]
  Plant response rating, Barnyardgrass: 0
[9]; [21]
  Plant response rating, Barnyardgrass: 0
Rice (Oryza sativa)
  Plant response rating, Flood, Rice: 35
Rice (Oryza sativa); [19]
  Plant response rating, Rice: 0
Rice (Oryza sativa); [20]
  Plant response rating, Rice: 0
Rice (Oryza sativa); [21]
  Plant response rating, Rice: 20
[10]
  Plant response rating, Flood, Ducksalad: 40
[10]; [19]
  Plant response rating, Ducksalad: 0
[10]; [20]
  Plant response rating, Ducksalad: 0
[10]; [21]
  Plant response rating, Ducksalad: 0
[11]
  Plant response rating, Flood, Sedge, Umbrella: 20
[11]; [19]
  Plant response rating, Sedge, Umbrella: 0
[11]; [20]
  Plant response rating, Sedge, Umbrella: 0
[11]; [21]
  Plant response rating, Sedge, Umbrella: 0
